Data as given in patent US7589109B2, “Oxyindole derivatives” (Pfizer Inc, priority 2005, dated 2009).

Target: T1, 5-HT4 receptors in the rat esophagus (Rattus norvegicus, UniProt Q62758)
T1 construct: The remaining inner tube of smooth muscle was known as the TMM; tissue Charles River (animals); host or cells: rat esophagus tunica muscularis mucosae (TMM) smooth muscle, organ bath
Experiment: TMM functional assay
Settings: 1 μM antagonist added to bath; carbachol-contracted rat TMM relaxed by 5-HT
Text: More specifically, partial agonist activity can be measured according to the following procedures.
Male SD rats (Charles River) weighing 250-350 g were stunned and then killed by cervical dislocation. The esophagus was dissected from immediately proximal to the stomach (including piece of stomach to mark distal end) up to the level of the trachea and then placed in fresh Krebs' solution.
The outer skeletal muscle layer was removed in one go by peeling it away from the underlying smooth muscle layer using forceps (stomach to tracheal direction). The remaining inner tube of smooth muscle was known as the TMM. This was trimmed to 2 cm from the original ‘stomach-end’ and the rest discarded.
The TMMs were mounted as whole ‘open’ tubes in longitudinal orientation in 5 ml organ baths filled with warm (32° C.) aerated Krebs. Tissues were placed under an initial tension of 750 mg and allowed to equilibrate for 60 minutes. The tissues were re-tensioned twice at 15 minute intervals during the equilibration period. The pump flow rate was set to 2 ml/min during this time.
Following equilibration, the pump was switched off. The tissues were exposed to 1 μM carbachol and contracted and reached a steady contractile plateau within 15 minutes. Tissues were then subject to 1 μM 5-HT (this was to prime the tissues). The tissues relaxed in response to 5-HT fairly rapidly—within 1 minute. […]

T1 sequence (Q62758 whole entry): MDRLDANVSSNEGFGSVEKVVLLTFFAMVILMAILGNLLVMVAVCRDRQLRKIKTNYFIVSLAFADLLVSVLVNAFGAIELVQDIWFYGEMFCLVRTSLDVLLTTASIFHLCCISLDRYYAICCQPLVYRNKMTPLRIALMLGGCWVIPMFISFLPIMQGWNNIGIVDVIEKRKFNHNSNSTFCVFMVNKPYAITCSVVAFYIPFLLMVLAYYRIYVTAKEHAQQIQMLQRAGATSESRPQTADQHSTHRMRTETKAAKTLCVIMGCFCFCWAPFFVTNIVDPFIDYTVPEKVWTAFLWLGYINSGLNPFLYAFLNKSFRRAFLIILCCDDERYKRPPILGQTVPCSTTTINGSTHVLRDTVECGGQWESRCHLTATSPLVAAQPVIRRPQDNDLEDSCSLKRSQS

Row | SMILES | reversal of agonist-induced relaxation
1 | O=C(OCCN1CCCCC1)c1c[nH]c2ccccc12 [SB 203,186, 1H-Indole-3-carboxylic acid, 2-(1-piperidinyl)ethyl ester] | reversed 5-HT induced relaxation

System: not given
Experiment: not given
Settings: not given

Row | SMILES | melting point [°C]
2 | CC(C)(CN1CCC(CNC(=O)N2C(=O)C(C)(C)c3ccccc32)CC1)C(=O)O | 164.5
3 | CC1(C)C(=O)N(C(=O)NCC2CCN(CC3(C(=O)O)CCC3)CC2)c2cc(F)ccc21 | 193
4 | CC(C)(CN1CCC(CNC(=O)N2C(=O)C(C)(C)c3ccc(F)cc32)CC1)C(=O)O | 134
5 | CC1(C)C(=O)N(C(=O)NCC2CCN(C(C)(C)C(=O)O)CC2)c2cc(F)ccc21 | 213
6 | CC(C)(CN1CCC(CNC(=O)N2C(=O)C3(CCCC3)c3ccccc32)CC1)C(=O)O | 189.1
7 | CC(C)(CN1CCC(F)(CNC(=O)N2C(=O)C(C)(C)c3ccc(F)cc32)CC1)C(=O)O | 176
8 | CC(C)(CN1CCC(F)(CNC(=O)N2C(=O)C(C)(C)c3ccccc32)CC1)C(=O)O | 156
9 | CC1(C)C(=O)N(C(=O)NCC2(O)CCN(CC3(C(=O)O)CCC3)CC2)c2cc(F)ccc21 | 159
10 | O=C(NCC1CCN(CC2(C(=O)O)CCC2)CC1)N1C(=O)C2(CCCC2)c2ccc(F)cc21 | 150.3
11 | O=C(NCC1CCN(CC2(C(=O)O)CCOCC2)CC1)N1C(=O)C2(CCCC2)c2ccc(F)cc21 | 161.3
12 | CC1(C)C(=O)N(C(=O)NCC2CCN(CC3(C(=O)O)CCC3)CC2)c2ccccc21 | 170.9

Next, values leading:

Row | melting point [°C] | SMILES
13 | 146.3 | O=C(NCC1CCN(CC2(C(=O)O)CCOCC2)CC1)N1C(=O)C2(CCCC2)c2ccccc21
14 | 160.4 | O=C(NCC1CCN(CC2(C(=O)O)CCCCC2)CC1)N1C(=O)C2(CCCC2)c2ccccc21
15 | 186.5 | O=C(NCC1CCN(CC2(C(=O)O)CC2)CC1)N1C(=O)C2(CCCC2)c2ccccc21
16 | 188.1 | O=C(NCC1CCN(CC2(C(=O)O)CCCC2)CC1)N1C(=O)C2(CCCC2)c2ccccc21
17 | 171 | O=C(NCC1CCN(CC2(C(=O)O)CCC2)CC1)N1C(=O)C2(CCCC2)c2ccccc21
